# Columns and labels:
# canine Met = assay: Met phosphorylation in canine tumor cell lines after rhHGF stimulation; type: cell-based
# Procedure: It is possible that this mutation results in the basal phosphorylation of Met in this cell line.
# To determine whether HGF stimulation of canine Met induces appropriate Met autophosphorylation and downstream signal transduction, Met expressing tumor cell lines were treated with recombinant human HGF and the phosphorylation of Met on several specific tyrosines as well as phosphorylation of downstream signaling components were evaluated. […] It was then necessary to determine whether all critical tyrosine residues were phosphorylated after rhHGF exposure, as it was possible that the recombinant human protein was only inducing partial or incomplete signal transduction. […] Although this could be attributed to autocrine HGF and HGFA production, the D17 cell line also has the D544N mutation.
# Gab-1, Erk1/2, and Akt = assay: Phosphorylation of downstream signal transduction components Gab-1, Erk1/2 and Akt after rhHGF stimulation; type: cell-based, canine
# Source text: The activation of downstream signal transduction components Gab-1, Erk1/2, and Akt were then examined. […] It is possible that in these cases, other growth factor pathways contribute to this high level of basal phosphorylation.
# canine OSA cells = assay: Scattering and migration of canine OSA cells under growth factor deprivation with HGF; type: cell-based; conditions: medium without fetal bovine serum, HGF added
# Source text: To evaluate the ability of OSA cells to scatter and migrate, we cultured cells in medium containing fetal bovine serum or no fetal bovine serum (stressful condition), then stimulated with HGF. The OSA cells began to show evidence of morphology change (scattering) upon growth factor deprivation.
# [1] = tested on: NIH-3T3 cells stably transfected with canine Met constructs; assay: Gap migration assay in NIH-3T3 cells stably transfected with canine Met constructs; type: cell-based; conditions: R988C, M1251T, D544N, G966S Met lines; 50 ng/ml; 24 hours
# Procedure: Cells were allowed to grow to confluence in tissue culture, then defects were created manually to create a “gap” in the cells. The cells were then left in medium alone or treated with recombinant human HGF (rhHGF) at 50 ng/ml. Cells were also treated with a Met inhibitor in the absence or presence of rhHGF. Cultures were evaluated 24 hours later by staining the cells with crystal violet and digital imaging.
# Met gene expression = Met gene expression by semi-quantitative RT-PCR under hypoxia mimic; type: cell-based; conditions: two canine OSA cell lines
# Source text: To evaluate the effects of hypoxia on Met gene expression, we cultured two different canine OSA cell lines in the presence of cobalt chloride, an agent that mimics hypoxia. […] Given the substantial data indicating a role of Met in a variety of human cancers, it is likely that dysregulation of Met will play a similar role in canine cancers.
# Sequence of canine Met (Q75ZY9 25-308 limits assumed): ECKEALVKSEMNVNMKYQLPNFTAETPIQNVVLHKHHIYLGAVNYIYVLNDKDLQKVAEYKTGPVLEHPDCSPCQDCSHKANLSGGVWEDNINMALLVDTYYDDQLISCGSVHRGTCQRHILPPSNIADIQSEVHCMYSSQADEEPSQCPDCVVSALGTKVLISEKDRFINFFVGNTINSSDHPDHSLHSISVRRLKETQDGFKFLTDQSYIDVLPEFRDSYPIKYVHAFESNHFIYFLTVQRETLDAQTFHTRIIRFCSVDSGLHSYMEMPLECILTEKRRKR
# Sequence of canine Met (Q75ZY9 309-516 limits assumed): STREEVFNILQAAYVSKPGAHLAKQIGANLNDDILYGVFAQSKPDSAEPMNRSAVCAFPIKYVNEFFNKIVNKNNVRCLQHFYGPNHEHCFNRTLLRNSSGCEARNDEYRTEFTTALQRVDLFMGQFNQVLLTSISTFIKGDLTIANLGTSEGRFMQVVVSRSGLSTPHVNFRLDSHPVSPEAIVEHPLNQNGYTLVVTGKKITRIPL
Compound,"phosphorylation of Met tyrosines 1003, 1230/34/35, 1349 and 1365 (canine Met; OSA8 canine OSA cell line)",concentration of maximal stimulation of Met phosphorylation (canine Met; canine OSA cell lines),phosphorylation of canine Met (canine Met; canine OSA cell lines),"Erk and Akt phosphorylation (Gab-1, Erk1/2, and Akt; Mel 3 and Mel 8 cell lines)","Gab-1 phosphorylation (Gab-1, Erk1/2, and Akt; each of the canine cell lines tested)",morphology change (scattering) (canine OSA cells),migration compared to NIH-3T3 expressing wild-type Met [1],Met gene expression (Met gene expression)
"rhHGF: recombinant human hepatocyte growth factor, the ligand for Met",all phosphorylated appropriately,50 ng/mL,induced phosphorylation of canine Met in all cell lines tested in a dose dependent fashion,inducible Erk and Akt phosphorylation,Gab-1 was phosphorylated,further enhanced,markedly increased,–
[Cl][Co][Cl] [cobalt chloride],–,–,–,–,–,–,–,upregulation of Met gene expression

# Source: patent publication US7291469B2, “Mutant met and uses therefor” (The Regents of the University of California, priority 2004, dated 2007)
